Four molecules from patent US8034817B2, “Treatment of bacterial diseases of the respiratory organs” (Bayer Pharma Aktiengesellschaft, priority 2003, dated 2011) can be followed below.

The conditions of series [1]: average for 3 animals.
In series [2] the test system is P. aeruginosa DSM 12055. The series can be described thus: Efficacy in a model of lung infection with P. aeruginosa, treatment 1 and 4 hours after infection, microbe count in the lungs. It counts as in vivo, P. aeruginosa (host: female Wistar rats). The settings on record: lungs after 24 h relative to untreated infection control, average for 5 animals. The procedure: Efficacy in a Model of Lung Infection with P. aeruginosa
[…]. Various dose groups each of 5 rats were employed. The animals were sacrificed 24 hours after the infection, and the lungs were removed and homogenized with a Potter from Braun. The homogenates were plated out to determine the microbe count in the lungs.

Series [3] has as its system P. aeruginosa DSM 12055. As to the kind of experiment: Further test with P. aeruginosa DSM 12055, single intratracheal dry powder treatment, microbe count in the lungs. It counts as in vivo, P. aeruginosa (host: rats). As to conditions: single intratracheal treatment 1 hour after infection, 10 mg/kg, DP-3 dry powder insufflator. Here is the method:
A dose of 10 mg/kg was administered with the aid of a DP-3 dry powder insufflator (PENN-CENTURY, INC.). It is known from control investigations that about 5 to 20% of the administered dose reach the lungs.

For series [4] the following is noted: rats; serum and lungs.
[5] abbreviates: 0.5 h, 7.5 mg/kg intratracheally as suspension, 7.5 mg/kg.
[6] abbreviates: 1 h, 7.5 mg/kg intratracheally as suspension, 7.5 mg/kg.
The mark [7] stands for this setting: 3 h, 7.5 mg/kg intratracheally as suspension, 7.5 mg/kg.
Where [8] appears, read: 5 h, 7.5 mg/kg intratracheally as suspension, 7.5 mg/kg.

SMILES strings stand for the structures. Structures can show the parent of a compound that is named as a salt. Where two headings read alike, the source gives them in different places.

With `O=C(O)c1cn(C2CC2)c2cc(N3CCNCC3)c(F)cc2c1=O` [ciprofloxacin betaine (laboratory product)], the Lung concentration in series [1] (setting [5]) was determined as 44.3 µg/mL; in series [1] (setting [6]) it was 40.1 µg/mL; in series [1] (setting [7]), 12.6 µg/mL; in series [1] (setting [8]), 7.21 µg/mL. In addition, the “Reduction in microbe count” value in series [2] (0.8 mg/kg i.t.) was −4.0 log units; in series [2] (2.5 mg/kg i.t.), −5.8 log units; in series [2] (7.5 mg/kg i.t.) it was −10 log units.

For `O=C(O)c1cn(C2CC2)c2cc(N3CCNCC3)c(F)cc2c1=O` [ciprofloxacin betaine (micronized), ciprofloxacin betaine], in series [3], the “Reduction of the microbe count in the lungs compared with an untreated control group” value was “more than 6 log units”. Besides, the Lung concentration in series [1] (0.25 h, 7.5 mg/kg intratracheally as suspension, 7.5 mg/kg) came out at 76 µg/mL; in series [1] (setting [5]), 76 µg/mL; in series [1] (setting [6]), 76 µg/mL; in series [1] (setting [7]), 54 µg/mL; in series [1] (setting [8]), 54 µg/mL.

Take `Cl.O=C(O)c1cn(C2CC2)c2cc(N3CCNCC3)c(F)cc2c1=O` [ciprofloxacin hydrochloride]: the Lung concentration in series [1] (0.25 h, 7.5 mg/kg intravenously as solution) came to 0.61 µg/mL; in series [1] (0.5 h, 7.5 mg/kg intratracheally as solution), 1.67 µg/mL; in series [1] (0.5 h, 7.5 mg/kg intravenously as solution), 0.35 µg/mL; in series [1] (1 h, 7.5 mg/kg intratracheally as solution), 0.63 µg/mL; in series [1] (1 h, 7.5 mg/kg intravenously as solution), 0.14 µg/mL; in series [1] (3 h, 7.5 mg/kg intratracheally as solution), 0.10 µg/mL. Moreover, the Lung concentration in series [1] (3 h, 7.5 mg/kg intravenously as solution) is 0 µg/mL; in series [1] (5 h, 7.5 mg/kg intratracheally as solution), 0 µg/mL; in series [1] (5 h, 7.5 mg/kg intravenously as solution), 0 µg/mL. Moreover, the “Reduction in microbe count” value is given as −1.8 log units in series [2] (0.8 mg/kg i.t.); −1.1 log units in series [2] (2.5 mg/kg i.t.); −2.8 log units in series [2] (2.5 mg/kg i.v.); −2.8 log units in series [2] (7.5 mg/kg i.t.); −3.5 log units in series [2] (7.5 mg/kg i.v.); −5.4 log units in series [2] (22.5 mg/kg i.v.). For the same molecule, in series [2] (67.5 mg/kg i.v.), the “Reduction in microbe count” value is −8.8 log units.

Consider `COc1c(N2C[C@@H]3CCCN[C@@H]3C2)c(F)cc2c(=O)c(C(=O)O)cn(C3CC3)c12` [moxifloxacin hydrochloride, Moxifloxacin hydrochloride], for which, in series [4], the “Fall of the concentration after intratracheal administration to the level reached orally” value was “within about an hour”.
